The test system of series [1] is Tg4-42 mice. The series can be described thus: Spatial reference memory by Morris water maze in Tg4-42 mice. It counts as in vivo, mouse. Conditions: aged Tg4-42 mice, FIG. 31A. The method, then: Tg4-42 mice were immunized at 6 weeks of age for 12 weeks with antigen [Thioacetal bridged Abeta peptide 1-14—KLH conjugate; DAC*[…]*HH[Cys]-amide (*S—CH—S bridged)] emulsified in complete Freund's adjuvant (CFA), followed by booster doses of protein emulsified in incomplete Freund's adjuvant (IFA). Booster injections of antigen emulsified in IFA was administered at day 14, day 28, day 42, thereafter monthly (3 times after month 4, 5 and 6), after immunization with antigen/CFA emulsion. Mice were acclimated at our facility for at least 7 days before immunization. Mice were injected with antigen emulsified in CFA or IFA subcutaneously at two sites on the back, injecting 0.05 to 0.1 mL at each site (total of 0.1 to 0.2 mL per mouse). […]
Spatial reference memory in mice was evaluated using the Morris water maze (R. Morris, Developments of a water-maze procedure for studying spatial learning in the rat. J. Neurosci. Methods 11, 47-60 (1984)) as described previously (Y. Bouter et al., N-truncated amyloid beta (Abeta) 4-42 forms stable aggregates and induces acute and long-lasting behavioral deficits. Acta Neuropathol 126, 189-205 (2013)).
The treatment effect of active immunization was assessed in 6.5 month old Tg4-42 mice on hippocampus-dependent learning and memory by the Morris water maze test (FIG. 31A) and by counting the total number of CA1 neurons in the hippocampus (FIG. 31B). […]

The subject of series [2] is 5XFAD mice. The series can be described thus: Active immunisation, in vivo glucose metabolism by 18F-FDG-PET/MRI in 5XFAD mice. Conditions: immunized 5XFAD mice, FIG. 30. Also on record: species or system mouse. The method, then:
18F-FDG-PET/MRI was performed on 5xFAD mice as well as age matched C57Bl/6J wild type mice. Mice were fasted overnight and blood glucose levels were measured before tracer injection. 11.46 to 20.53 MBq (mean 16.81 MBq) 18F-FDG was injected intravenously into a tail vein with a maximum volume of 200 μl followed by an uptake period of 45 minutes. Mice were awake during the uptake process. PET scans were performed for 20 minutes using a small animal 1 Tesla nanoScan PET/MRI (Mediso, Hungary). Mice were anesthetized with isoflurane supplemented with oxygen during the scans and kept on a heated bed (37° C.). Respiratory rate was measured throughout the imaging process. […]
All images were analyzed using PMOD v3.9 (PMOD Technologies, Switzerland) as described before (Bouter et al). […] PET VOI statistics (kBq/cc) were generated for all brain areas and standardized uptake values (SUVs) were calculated [SUV=tissue activity concentration average (kBq/cc)×body weight (g)/injected dose (kBq)] for semi-quantitative analysis. SUVs of 18F-FDG-PET scans were corrected for measured blood glucose levels [SUVGIc=SUV x blood glucose level (mg/dl)]. […]
In vivo glucose metabolism on Alzheimer mice (5XFAD) as well as age matched C57Bl/6J wild type mice was analysed by 18F-FDG-PET/MRI imaging as described above.

Series [3] deals with full-length amyloid-beta 1-42. The series can be described thus: Reactivity of antibodies induced by the cyclic peptide with full-length amyloid-beta. It counts as in vivo. The following applies: antibodies induced by immunisation. The method, then:
• 1. Coat 384-well plate with 30 μL/well of 100 ng/ml PSL amyloid 1-42 peptide (Human-Peptide Specialty Laboratories-CEM1904161) diluted in carb/bicarb buffer • 2. Incubate at 37° C. for 1 hour • 3. Wash the plate (NUNC 384 program) • 4. […] Incubate at 4° C. overnight • 6. Wash the plate (NUNC 384 program) • 7. […] Transfer 30 μL/well onto the assay plate • 10. Incubate at 37° C. for 1 hour • 11. Wash the plate (NUNC 384 program) • 12. […] Incubate at 37° C. for 1 hour • 14. Wash the plate (NUNC 384 program) • 15. […] Incubate at RT for 10 min in the dark • 17. […] Coat 384-well plate with 30 μL/well of 100 ng/ml PSL amyloid pE3-42 peptide (Human-Peptide Specialty Laboratories-CEM062210 Pyr) diluted in carb/bicarb buffer • 2. Incubate at 37° C. for 1 hour • 3. Wash the plate (NUNC 384 program) • 4. […] Incubate at 4° C. overnight • 6. Wash the plate (NUNC 384 program) • 7. […] Transfer 30 μL/well onto the assay plate • 10. Incubate at 37° C. for 1 hour • 11. Wash the plate (NUNC 384 program) • 12. […] Incubate at 37° C. for 1 hour • 14. Wash the plate (NUNC 384 program) • 15. […] Incubate at RT for 10 min in the dark • 17.

Consider “DAC*FRHDSGYEC*HH[Cys]-amide (*S—CH—S bridged, cyclised via positions 3 and 12)”, for which the “learning and memory deficits, Morris water maze probe trial” value was “substantial rescue of learning and memory deficits” in series [1] (listed as 3-12 linked A61-14 cyclic peptide); “rescued memory deficits” in series [1] (listed as cylised Aβ peptide). For the same substance, in series [2], the “brain glucose metabolism (18F-FDG uptake)” value is recorded as “significant rescue”. The “reactivity of induced antibodies with full-length amyloid-beta 1-42” value in series [3] was “do not react”.

Values taken from patent US20230151069A1, “Cyclic Peptides” (LIFEARC, priority 2020, published 2023).
